Legend:
GPC5 mRNA = GPC5 mRNA quantification (TaqMan) after electroporation of antisense oligonucleotides into K562 cells; assay type: cell-based, human
Method: To measure the amount of mature mRNA copies of GPC5 and GPC6 the probe was designed across the exon 1-exon 2 boundary and the exon 7-exon 8 boundary respectively. Applied Biosystems' Predeveloped GAPDH (Glyceraldehyde 3-phosphate dehydrogenase) was used as an endogenous control. 25 μL multiplex PCR reactions were run using 2× Universal TaqMan® Master Mix (Applied Biosystems Pt No. 4304437), the concentration of primers and probes shown in Table 1 and 10 ng of DNA or cDNA. These samples were run in triplicate under standard operating conditions on an ABI7700 SDS TaqMan® Machine (Applied Biosystems, CA). […] Thus, the amount of GPC5 and GPC6 was measured relative to either normal genomic DNA in the case of genomic measurements and to normal muscle in the case of expression measurements. Normal genomic DNA was extracted from the blood of a healthy donor, normal muscle cDNA was produced from RNA extracted from a pool of 11 normal muscle biopsies. […]

K562 cells = assay: Clonogenic cell survival assay in soft agar, K562 cells; assay type: cell-based, human
Method: Antisense or control oligonucleotides were dissolved in PBS and introduced into K562 cells by low voltage electroporation: 40 μl of appropriately diluted ASOs were combined with 360 μl of cell suspension at 2×10^7 cells/ml and cells were electroporated (Bio-Rad Gene Pulser® II Electroporation system with Pulse Controller Plus capacitance extender accessory module, Bio-Rad Laboratories Ltd, Hemel Hempstead, Herts, UK) using 300V and a capacitor value of 1000 μF, and diluted to 10 ml with complete medium. From each sample appropriate duplicate aliquots of cells were serially diluted in complete medium for assessment of cytotoxicity while the remaining cells were incubated at 37° C. for 24 hours ana RNA extracted for quantification of GPC5 and/or WT1 expression levels.
In this assay, cells are grown at low density in suspension in soft agar following treatment. […] 2 ml aliquots of diluted cells were added to polystyrene tubes (Elkay Products (UK) Ltd., Basingstoke, Hampshire, UK) containing 3 ml of medium supplemented with 20% FCS and 0.2% Agar Noble (DIFCO Laboratories, Detroit, Mich.), incubated at 37° C., and colonies containing at least 32 cells counted after 14 days. The number of colonies formed following drug treatment were compared to the number obtained following sham electroporation or a control scrambled oligonucleotide and expressed as % control treatment. […]

HL-60 = assay: Clonogenic cell survival assay in soft agar, HL-60 control leukaemic cell line not expressing GPC5; assay type: cell-based; conditions: HL-60 cells, compared to sham-treated
Method: In this assay, cells are grown at low density in suspension in soft agar following treatment. Each colony formed derives from a single surviving cell. 2 ml aliquots of diluted cells were added to polystyrene tubes (Elkay Products (UK) Ltd., Basingstoke, Hampshire, UK) containing 3 ml of medium supplemented with 20% FCS and 0.2% Agar Noble (DIFCO Laboratories, Detroit, Mich.), incubated at 37° C., and colonies containing at least 32 cells counted after 14 days. The number of colonies formed following drug treatment were compared to the number obtained following sham electroporation or a control scrambled oligonucleotide and expressed as % control treatment. In a number of separate experiments, control plating efficiencies ranged from 22-38%, with 800-1600 cells typically plated. In addition, cells from the dilution series (approx 10^3-10^4 cells/ml) were allowed to grow up in suspension culture in parallel for 3-5 days in order to confirm cytotoxicity.
Two active compounds, ISIS 276107 and ISIS 276119, were identified in this primary screen, reducing GPC5 levels to less than 30% control levels and reducing cell survival by greater than 80% (FIG. 3A). […] FIGS. 3B and C show the effects of ISIS 276107 and a control compound (ISIS 276124) at varying concentrations in the same assay.

WT1 = WT1 expression in PC3M tumours grown as subcutaneous implants in treated mice; assay type: in vivo, athymic nude mice; conditions: PC3M prostate cancer subcutaneous implants, mice treated with WT1 antisense; preliminary, data not shown
Method: The primer pair and probe for the quantification of WT1 were designed using the Primer Express program (Applied Biosystems) according to the recommended guidelines and as described above.: WT1—Forward primer, 5′-[…]-3′, reverse primer, 5′, […]-3′, and probe, 5′-[…]-3′. Each assay sample was analyzed in triplicate as above, and multiplexed to facilitate the measurement of gene expression levels relative to GAPDH (in vivo tumour samples) or 18 s ribosomal RNA expression (ribosomal RNA control reagents, Applied Biosystems) (in vitro cell line samples) using the standard curve method.
Previous gene profiling studies following treatment of K562 cells with WT1 directed ASOs, identified GPC5 as a putative WT1 target gene (manuscript in preparation). Downregulation of GPC5 expression following WT1 antisense treatment and correlating with reduced WT1 expression was confirmed in independent experiments (see FIG. 6). […] Direct transcriptional regulation of GPC5 by WT1 is likely since GPC5 has two WT1 consensus binding sites in its promoter region.

GPC5 = GPC5 expression in PC3M tumours grown as subcutaneous implants in treated mice; assay type: in vivo, athymic nude mice; conditions: preliminary
Method: To measure the amount of mature mRNA copies of GPC5 and GPC6 the probe was designed across the exon 1-exon 2 boundary and the exon 7-exon 8 boundary respectively. Applied Biosystems' Predeveloped GAPDH (Glyceraldehyde 3-phosphate dehydrogenase) was used as an endogenous control. 25 μL multiplex PCR reactions were run using 2× Universal TaqMan® Master Mix (Applied Biosystems Pt No. 4304437), the concentration of primers and probes shown in Table 1 and 10 ng of DNA or cDNA. These samples were run in triplicate under standard operating conditions on an ABI7700 SDS TaqMan® Machine (Applied Biosystems, CA). […] Thus, the amount of GPC5 and GPC6 was measured relative to either normal genomic DNA in the case of genomic measurements and to normal muscle in the case of expression measurements. Normal genomic DNA was extracted from the blood of a healthy donor, normal muscle cDNA was produced from RNA extracted from a pool of 11 normal muscle biopsies.
Previous gene profiling studies following treatment of K562 cells with WT1 directed ASOs, identified GPC5 as a putative WT1 target gene (manuscript in preparation). Downregulation of GPC5 expression following WT1 antisense treatment and correlating with reduced WT1 expression was confirmed in independent experiments (see FIG. 6). […]

## ISIS 276124: control oligonucleotide, TGGATTTGCTTTACACATCACT (SEQ ID NO: 25)
GPC5 mRNA
  effect on GPC5 expression / GPC5 levels: not to affect
K562 cells
  effect on cell viability / cell survival: not to affect
HL-60
  colony number following treatment: no decrease

## ASWT1exon5: WT1 antisense oligonucleotide targeting WT1 exon 5, GCCCCTTCTGTCCATTTCACT (SEQ ID NO: 26)
WT1
  decrease in WT1 expression levels: 50%
GPC5; PC3M prostate cancer subcutaneous implants, mice treated with WT1 antisense, data not shown
  reduction in GPC5 expression: 30%

## ISIS 276107: 20 mer 2'-MOE chimeric phosphorothioate GPC5 antisense oligonucleotide, CAGCCCCCTGACAGCTCCCA (SEQ ID NO: 23) (all phosphorothioate, sugars by position and methylation of C not given here; 2'-MOE wings flank eight-deoxy central gap)
HL-60
  colony number following treatment: no decrease

## CC(=O)O[C@@]12CO[C@@H]1C[C@H](O)[C@@]1(C)C(=O)[C@H](O)C3=C(C)[C@@H](OC(=O)[C@H](O)[C@@H](NC(=O)OC(C)(C)C)c4ccccc4)C[C@@](O)([C@@H](OC(=O)c4ccccc4)[C@H]21)C3(C)C [docetaxol]
GPC5; PC3M tumours, mice treated with 15 mg/kg
  increase in GPC5 expression: 5 fold

Reference: patent US7855182B2, “Materials and methods for treatment of cancer” (The Institute of Cancer Research; Royal Cancer Hospital, priority 2004, dated 2010)
